Measured values: US5707821A, “Identification of phospholipase A2 inhibitors in Aβ peptide-mediated neurodegenerative disease” (priority 1995, dated 1998)

Columns and labels:
human cortical neurons [1] = test: Compound toxicity to human cortical neurons in absence of Aβ1-40 (alamarBlue, 3 days); assay type: cell-based
Procedure: (§1) Cultures of human cortical or hippocampal neurons were prepared using a modification of the procedure described in P. Seubert et al. (1992), Nature 359:325-327. Cortical or hippocampal tissue was dissociated by incubation in a trypsin/EDTA solution (0.05% trypsin +0.53 mM EDTA in HBSS; Gibco) for 20 minutes at 37° C. The trypsin was then inactivated by resuspending the cells in serum-containing medium (MEM/FBS): Modified Eagle's Medium (MEM) containing 1% glucose, 1 mM sodium pyruvate, 1 mM glutamine, and supplemented with 10% fetal bovine serum (Gibco). Cells were then pelleted by centrifugation and resuspended in a chemically-defined medium (MEM/B27): MEM containing B27 supplement (Gibco) in place of FBS. Polyethyleneimine (PEI)-coated 6.4-mm (96-well) dishes were rinsed once with MEM/FBS, and then seeded at 0.75-1.25×10^5 cells per well in 0.1 ml MEM/B27. Cultures were maintained in a H2 O-saturated incubator with an atmosphere of 95% air/5% CO2 at 37° C. The culture medium was exchanged twice weekly.
(§2) The alamarBlue™ assay incorporated a proprietary fluorometric/colorimetric metabolic indicator (Alamar Biosciences, Inc.). Viable cells convert alamarBlue™ from an oxidized (non-fluorescent, blue) form to a reduced (fluorescent, red) form. Assays were performed by replacing the culture media with a 10% alamarBlue™ solution in DMEM (rat cortical cultures) or MEM (human cortical cultures). Reduction of alamarBlue™ was determined spectrofluorometrically using a Millipore Cytofluor 2350 Scanner (excitation, […]; emission, 590 nm) and CytoCalc™ software (Millipore Corporation).
(§3) Human cortical neurons were treated with 50 μM Aβ1-40 and various inhibitors of PLA2 or PLC. Compounds were added at the time of Aβ1-40 treatment at concentrations 390 nM to 100 μM. Compounds were also added to neuronal cultures in the absence of Aβ1-40. Neuronal survival was determined after 3 days of treatment by alamarBlue®. IC50 is the dose of compound that inhibited Aβ-mediated neurotoxicity by 50%. […] Data represents the mean ± SD (n=3). ND, not detected at the concentration range used.

[2] = as above; assay type: cell-based; conditions: human, cortical neurons
Procedure: as §1, §2, §3

human cortical neurons [3] = test: Aβ neurotoxicity / survival of human cortical neurons (alamarBlue), compound added at time of Aβ1-40; assay type: cell-based; conditions: for Max Inh: 50 μM Aβ1-40, compound 390 nM to 100 μM added at time of Aβ, 3 days, n=3
Procedure: as §1
(§4) Amyloid-β (Aβ) stock solutions were prepared as 1 mM stocks in sterile ddH2 O immediately prior to addition to cultures. Rat cortical neurons were exposed to Aβ by removing the culture medium and replacing it with DMEM/N2 or DMEM/B27 containing Aβ1-40. Human cortical neurons were exposed to Aβ by removing the culture medium and replacing it with MEM, MEM/N2, or MEM/B27 containing Aβ1-40. Cultures were maintained for 2-4 days before neuronal survival was quantified using alamarBlue™.
as §2
The effect of the two benzenesulfonamide inhibitors of PLA2 in Example 2 were examined to determine the dose-dependence of their effect on neuronal survival in human cortical neuron cultures exposed to 0 μM, 25μM, or 50 μM of Aβ1-40 and varying doses of the benzenesulfonamide.
as §3

[4] = test system: PLC (phosphatidyl choline-phospholipase C); conditions: literature; cited from earlier work
human cortical neurons [5] = test: Aβ neurotoxicity in human cortical neurons (alamarBlue), 2 h pretreatment with inhibitor; assay type: cell-based; conditions: Homo sapiens, Cortical neurone, 72 h, read-out: Max Inh
Procedure: as §1, §4, §2
The effect of pretreating human cortical neuron cultures with the benzenesulfonamide PLA2 inhibitors and arachidonyl trifluoromethyl ketone prior to exposure to a neurotoxic concentration of Aβ1-40 was determined.
(§5) Human cortical neurons were treated with 50 μM Aβ1-40 and various inhibitors of PLA2. Compounds were added 2 hours prior to Aβ1-40 treatment at concentrations of 390 nM to 100 μM, and were then re-added at the time of Aβ1-40 treatment. Compounds were also added in an identical manner to neuronal cultures in the absence of Aβ1-40. Neuronal survival was determined after 3 days of treatment by alamarBlue®. IC50 is the dose of compound that inhibited Aβ-mediated neurotoxicity by 50%. […] Data represents the mean ± SD (n=3). ND, not detected at the concentration range used.

human cortical neurons [6] = test: Compound toxicity to human cortical neurons in absence of Aβ1-40, added as in pretreatment protocol; assay type: cell-based; conditions: no Aβ1-40, 3 days, n=3
Procedure: as §1, §2, §5

[7] = as above; assay type: cell-based; conditions: human, cortical neurons, no Aβ1-40, 3 days, n=3, ND = not detected at the concentration range used, read-out: TD50 (concentration giving 50% loss of neuronal survival)
Procedure: as §1, §2, §5

PLA2 = conditions: literature; cited from earlier work
AD patients = conditions: selected group of five AD patients; cited from earlier work

| Structure (SMILES) | Max Inh (human cortical neurons [3]) | inhibition of PLC [4] | Emax (human cortical neurons [5]) | TD10 (concentration giving 10% loss of neuronal survival) (human cortical neurons [6]) | CC50 at 72 h [7] | also measured |
| --- | --- | --- | --- | --- | --- | --- |
| S=C(S)OC1CC2CC1C1CCCC21 (stereo not shown) [AN20602, potassium 8(9)-tricyclo[5.2.1.0^2,6]decyl xanthate] | 25% | PLC inhibitor |  |  |  | TD10 (concentration giving 10% loss of neuronal survival) (human cortical neurons [1]; human, 4320 min): 13 µM; CC50 at 72 h [2]: 35 µM; enhancing neuronal survival after exposure to Aβ (in words) (human cortical neurons [3]; Example 5, FIG. 5, three days): relatively ineffective in enhancing neuronal survival |
| CC1=C(CC/C(C)=C/CCC2=CC[C@H](C3=CC(=O)O[C@H]3O)O[C@H]2O)C(C)(C)CCC1 [Manoalide] |  |  | 49% | 8 µM | 10 µM |  |
| COc1ccc2c(c1)CC[C@@H]1[C@@H]2CC[C@]2(C)[C@@H](NCCCCCCN3C(=O)C=CC3=O)CC[C@@H]12 [U73122, 1-[6-[[(17β)-3-methoxyestra-1,3,5(10)-trien-17-yl]amino]hexyl]-1H-pyrrole-2,5-dione] | 66% | inhibits both PLA2 and PLC |  |  |  | TD10 (concentration giving 10% loss of neuronal survival) (human cortical neurons [1]; no Aβ1-40, 3 days, 390 nM to 100 μM, n=3): 11 µM; CC50 at 72 h ([2]; no Aβ1-40, 3 days, 390 nM to 100 μM, n=3, ND = not detected at the concentration range used, read-out: TD50 (concentration giving 50% loss of neuronal survival)): 16 µM; inhibition of PLA2 (PLA2): inhibits both PLA2 and PLC; IC50 (human cortical neurons [3]; Homo sapiens, Cortical neurone, 72 h, read-out: IC50 (dose that inhibited Aβ-mediated neurotoxicity by 50%)): 9 µM |
| COc1ccc2c(c1)c(CC(=O)O)c(C)n2C(=O)c1ccc(Cl)cc1 [indomethacin] |  |  |  |  |  | effects on neuropathological progression (AD patients): no effects on neuropathological progression were noted; reducing symptomatic progression in AD patients (AD patients): allegedly useful in reducing symptomatic progression |
| O=C(CBr)c1ccc(Br)cc1 [p-Bromophenacyl Bromide] |  |  | 39% | 8 µM | 10 µM |  |
